According to paper PMC9847679, “The anti-breast cancer stem cell properties of gold(I)-non-steroidal anti-inflammatory drug complexes” (Chemical Science, 2022):
Where two headings read alike, the source gives them in different places.

What was measured:
[1] = tested on: HMLER-shEcad mammospheres; experiment: Mammosphere viability assay (TOX8); assay type: cell-based, human; details: 5 days incubation
Protocol: Tumorsphere Formation and Viability Assay.
in ultralow-attachment 96-well plates (Corning) and incubated in MEGM supplemented with B27 (Invitrogen), 20 ng mL-1 EGF and 4 μg mL-1 heparin (Sigma) for 5 days. […] The viability of the mammospheres was determined by addition of a resazurin-based reagent, TOX8 (Sigma). After incubation for 16 h, the fluorescence of the solutions was read at 590 nm (λex = 560 nm). Viable mammospheres reduce the amount of the oxidised TOX8 form (blue) and concurrently increase the amount of the fluorescent TOX8 intermediate (red), indicating the degree of mammosphere cytotoxicity caused by the test compound. Fluorescence values were normalised to DMSO-containing controls and plotted as concentration of test compound versus % mammospheres viability. IC50 values were interpolated from the resulting dose dependent curves. The reported IC50 values are the average of three independent experiments, each consisting of two replicates per concentration level (overall n = 6).

[2] = tested on: HMLER cells; experiment: Monolayer cytotoxicity (MTT assay), HMLER cells; assay type: cell-based, human
Description: (§1) Cell Lines and Cell Culture Conditions. The human mammary epithelial HMLER and HMLER-shEcad cell lines were kindly donated by Prof. R. A. Weinberg (Whitehead Institute, MIT). The human epithelial breast MCF10A, breast adenocarcinoma MDA-MB-231 and MDA-MB-468, murine epithelial breast 4T1, and embryonic kidney HEK 293 cell lines were acquired from American Type Culture Collection (ATCC, Manassas, VA, USA).
(§2) HMLER, HMLER-shEcad, and MCF10A cells were maintained in Mammary Epithelial Cell Growth Medium (MEGM) with supplements and growth factors (BPE, hydrocortisone, hEGF, insulin, and gentamicin/amphotericin-B). MDA-MB-231, MDA-MB-468, 4T1, and HEK 293 cells were maintained in Dulbecco's Modified Eagle's Medium (DMEM) supplemented with fetal bovine serum (10 %) and penicillin/streptomycin (1 %). The cells were grown at 310 K in a humidified atmosphere containing 5% CO2.
(§3) Monolayer Cytotoxicity Studies. Exponentially growing cells were seeded at a density of approximately 5 × 10^3 cells per well in 96-well flat-bottomed microplates and allowed to attach for 24 h prior to addition of compounds. Various concentrations of the test compounds (0.0004-100 μM) were added and incubated for 72 h at 37 °C (total volume 200 μl). Stock solutions of the compounds were prepared as 10 mM DMSO solutions and diluted using cell […]
(§4) media. The final concentration of DMSO in each well was ≤1 %. After 72 h, 20 μl of MTT (4 mg mL-1 in PBS) was added to each well and the plates incubated for an additional 4 h at 37 °C. The media/MTT mixture was eliminated and DMSO (100 μl per well) was added to dissolve the formazan precipitates. The optical density was measured at 550 nm using a 96-well multiscanner autoreader. Absorbance values were normalised to (DMSO-containing) control wells and plotted as concentration of test compound versus % cell viability. IC50 values were interpolated from the resulting dose dependent curves. The reported IC50 values are the average of three independent experiments (n = 18). […]
(§5) After incubation for 16 […]
(§6) h, the fluorescence of the solutions was read at 590 nm (λex = 560 nm). Viable mammospheres reduce the amount of the oxidised TOX8 form (blue) and concurrently increase the amount of the fluorescent TOX8 intermediate (red), indicating the degree of mammosphere cytotoxicity caused by the test compound. […]
(§7) Cellular Uptake. To measure the cellular uptake of 1-3 about 1 million HMLER-shEcad cells were treated with 1-3 (0.25 μM) at 37 °C for 24 h. After incubation, the media was removed, the cells were washed with PBS (2 mL × 3) and harvested. The number of cells was counted at this stage, using a haemocytometer. This mitigates any cell death induced by 1-3 at the administered concentration and experimental cell loss. The cellular pellets were dissolved in 65% HNO3 (250 µL) overnight. A cellular pellet of HMLER-shEcad cells treated with 1 was also used to determine the gold content in the nuclear, cytoplasmic and membrane fractions. The Thermo Scientific NE-PER Nuclear and Cytoplasmic Extraction Kit was used to extract and separate the nuclear, cytoplasmic and membrane fractions. The fractions were dissolved in 65% HNO3 (250 µL final volume) overnight. All samples were diluted 17-fold with water and analysed using inductively coupled plasma mass spectrometry (ICP-MS, Thermo Scientific ICAP-Qc quadrupole ICP mass spectrometer). Gold levels are expressed as mass of Au (ng) per million cells. Results are presented as the mean of four determinations for each data point.
(§8) Intracellular ROS Assay. […]

[3] = tested on: HMLER-shEcad cells; experiment: Monolayer cytotoxicity (MTT assay), HMLER-shEcad cells; assay type: cell-based, human
Description: as §1, §2, §3, §4, §5, §6, §7, §8

[4] = tested on: HMLER-shEcad mammospheres; parameters: method as in PMID 26806362, PMID 31209956, PMID 28932846; details: read-out: Mammosphere IC50; cited from earlier work
[5] = tested on: HMLER cells; parameters: method as in PMID 26806362, PMID 31209956, PMID 28932846; details: cited from earlier work
[6] = tested on: HMLER-shEcad cells; parameters: method as in PMID 26806362, PMID 31209956, PMID 28932846; details: cited from earlier work
[7] = molecular target: T1, COX-2 (Ovis aries, UniProt P79208); experiment: COX-2 inhibition enzyme immunoassay (EIA); assay type: biochemical, ovine; details: COX-2-catalysed conversion of arachidonic acid to prostaglandin, tested 1-250 μM
T1 construct: purchased Cayman Chemicals
T1 sequence (P79208 17-603): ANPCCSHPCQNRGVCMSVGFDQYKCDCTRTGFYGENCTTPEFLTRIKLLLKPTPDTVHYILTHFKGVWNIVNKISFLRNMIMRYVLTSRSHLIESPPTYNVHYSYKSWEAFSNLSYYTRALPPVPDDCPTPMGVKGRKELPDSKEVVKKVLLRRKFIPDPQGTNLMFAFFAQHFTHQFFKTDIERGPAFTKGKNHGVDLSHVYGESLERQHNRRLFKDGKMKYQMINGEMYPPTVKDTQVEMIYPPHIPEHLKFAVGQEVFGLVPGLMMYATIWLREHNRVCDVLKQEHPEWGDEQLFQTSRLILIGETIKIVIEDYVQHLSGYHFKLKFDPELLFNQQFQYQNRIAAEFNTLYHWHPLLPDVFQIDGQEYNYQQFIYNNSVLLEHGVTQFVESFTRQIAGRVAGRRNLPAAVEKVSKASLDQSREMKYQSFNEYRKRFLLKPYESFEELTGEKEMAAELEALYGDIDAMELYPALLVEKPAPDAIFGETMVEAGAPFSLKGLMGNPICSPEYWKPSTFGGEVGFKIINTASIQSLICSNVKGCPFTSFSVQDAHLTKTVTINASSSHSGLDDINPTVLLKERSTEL
Protocol: ice-cold methanol (for 30 min), and suspended in PBS (200 μL). […]
COX-2 Inhibition Enzyme Immunoassay (EIA). The COX-2 inhibitory properties of 1,
indomethacin, and ch loro(triphenylphosphine)gold(I) was determined using the “COX
(ovine) Inhibitor Screening Assay (Cayman Chemicals).” The assay was performed
according to the manuf acturer’s instructions using a 96-well plate set up.

[8] = tested on: 4T1 cells; experiment: Monolayer cytotoxicity (MTT assay), 4T1 cells; assay type: cell-based, murine; details: 72 h incubation
Description: as §1, §2, §3
(§9) media. The final concentration of DMSO in each well was ≤1 %. […] The optical density was measured at 550 nm using a 96-well multiscanner autoreader. Absorbance values were normalised to (DMSO-containing) control wells and plotted as concentration of test compound versus % cell viability. […]
(§10) h, the fluorescence of the solutions was read at 590 nm (λex = 560 nm). […]
(§11) Cellular Uptake. […] The number of cells was counted at this stage, using a haemocytometer. […] All samples were diluted 17-fold with water and analysed using inductively coupled plasma mass spectrometry (ICP-MS, Thermo Scientific ICAP-Qc quadrupole ICP mass spectrometer). Gold levels are expressed as mass of Au (ng) per million cells. […]

[9] = tested on: MDA-MB-468 cells; experiment: Monolayer cytotoxicity (MTT assay), MDA-MB-468 cells; assay type: cell-based, human; details: 72 h incubation
Description: as §1, §2, §3, §4
Cellular Uptake. […]

[10] = Water-octanol partition coefficient (shake-flask, UV-vis); assay type: physicochemical; details: room temperature 24 h
Protocol: Measurement of water-octanol partition coefficient (LogP). The LogP values for 1-8 were determined using the shake-flask method and UV-vis spectroscopy. The 1-octanol used in this experiment was pre-saturated with water. An aqueous solution of 1-8 (500 μL, 100 μM) was incubated with 1-octanol (500 μL) in a 1.5 mL tube. The tube was shaken at room temperature for 24 h. The two phases were separated by centrifugation and the 1-8 content in each phase was determined by UV-vis spectroscopy. […]

[11] = tested on: MDA-MB-231 cells; experiment: Monolayer cytotoxicity (MTT assay), MDA-MB-231 cells; assay type: cell-based, human; details: 72 h incubation
Description: as §1, §2, §3, §9, §10, §11

[12] = Solution stability by UV-vis and NMR spectroscopy; assay type: physicochemical
Protocol: The stability of 1–8 in solutions relevant for cell-based studies was determined by UV-vis spectroscopy studies. […] The DMSO- and PBS-stable complexes 1–4 (50 μM) were also deemed stable in MEGM : DMSO (1 : 1) over the course of 24 h at 37 °C (Fig. S22 ^†). Time course ^31P{^1H} and ^1H NMR spectroscopy studies were carried out to confirm the solution stability of 1–4. […] The ^1H NMR spectra for 1–3 (10 mM) remained unchanged over the same period (Fig. S26–S28 ^†). […] In the ^31P{^1H} NMR spectrum, the signal for intact 4 (at 27.05 ppm) completely disappeared after 48 h and was replaced by a signal corresponding to triphenylphosphine oxide (at 25.47 ppm) (Fig. S29 ^†). The formation of triphenylphosphine oxide was also detected in the ^1H NMR spectrum (Fig. S30 ^†). Additionally, plating of elemental gold was observed over the course of 72 h.

[13] = tested on: COX-2; experiment: COX-2 expression assay (flow cytometry); assay type: cell-based, human; details: LPS 2.5 μM 24 h pre-treatment; 1 at IC50 value or indomethacin 20 μM, 48 h
Protocol: COX-2 Expression Assay. HMLER-shEcad cells were seeded in 6-well plates (at a density […]
indomethacin (20 μM) and incubated for a further 48 h. The cells were then harvested by trypsinisation, fixed with 4% paraformaldehyde (at 37 °C for 10 min), permeabilised with ice-cold methanol (for 30 min), and suspended in PBS (200 μL). […]
labelled anti-COX-2 antibody (5 μL) was then added to the cell suspension and incubated in the dark for 1 h. The cells were then washed with PBS (1 mL) and analysed using a FACSCanto II flow cytometer (BD Biosciences) (10,000 events per sample were acquired) at the University of Leicester FACS Facility. The FL1 channel was used to assess COX-2 expression. Cell populations were analysed using the FlowJo software (Tree Star).
COX-2 Inhibition Enzyme Immunoassay (EIA). […]
(ovine) Inhibitor Screening Assay (Cayman Chemicals).” The assay was performed according to the manuf acturer’s instructions using a 96-well plate set up.

[14] = Homo sapiens, 72 h incubation, MTT
[15] = Homo sapiens, within concentration range tested

## O=c1[nH]cc(F)c(=O)[nH]1 [5-Fluorouracil, 5-fluorouracil, reference compound]
[1]; Homo sapiens, 120 h
  IC50: 15 ± 1 µM

## CCCCCOC(=O)Nc1nc(=O)n([C@@H]2O[C@H](C)[C@@H](O)[C@H]2O)cc1F [Capecitabine, capecitabine]
[2]; [14]
  IC50: > 100 µM
[1]; Homo sapiens, 120 h
  IC50: > 133 µM
[3]; [14]
  IC50: > 100 µM

## N.N.O=C([O-])C1(C(=O)[O-])CCC1.[Pt+2] [Carboplatin, carboplatin]
[4]
  IC50: 18 ± 1 µM

## N.N.[Cl][Pt][Cl] [Cisplatin, cisplatin]
[5]
  IC50: 2.565 ± 0.021 µM
[4]
  IC50: 14 ± 2 µM
[6]
  IC50: 5.65 ± 0.304 µM

## CC[C@@H](C(=O)[C@@H](C)[C@@H](O)[C@H](C)[C@@H]1O[C@@H]([C@@H](CC)C(=O)O)CC[C@@H]1C)[C@H]1O[C@]2(C=C[C@@H](O)[C@]3(CC[C@@](C)([C@H]4CC[C@](O)(CC)[C@H](C)O4)O3)O2)[C@H](C)C[C@@H]1C [Salinomycin, salinomycin]
[4]
  IC50: 19 ± 2 µM
[6]
  IC50: 4.23 ± 0.35 µM

## CC(=O)OC[C@H]1O[C@@H]([S-])[C@H](OC(C)=O)[C@@H](OC(C)=O)[C@@H]1OC(C)=O.CCP(CC)CC.[Au+] [auranofin]
[2]
  fold more potent towards HMLER cells than HMLER-shEcad cells: 2 fold
[2]; 72 h incubation, MTT
  IC50: 0.013 ± 0.002 µM
[3]; 72 h incubation, MTT
  IC50: 0.026 ± 0.005 µM

## [Cl][Au].c1ccc(P(c2ccccc2)c2ccccc2)cc1 [chloro(triphenylphosphine)gold(I)]
[2]; 72 h incubation, MTT
  IC50: 0.207 ± 0.005 µM
[7]
  IC50: > 250 µM
[3]; 72 h incubation, MTT
  IC50: 0.216 ± 0.003 µM
[3]; compared with 1
  fold less toxic towards HMLER and HMLER-shEcad cells than 1: up to 3.8 fold

## O=C([O][Au][PH](c1ccccc1)(c1ccccc1)c1ccccc1)c1cc(-c2ccc(F)cc2F)ccc1O [complex 2]
[8]
  IC50: 7.25 ± 0.4 µM
[2]; 72 h incubation, MTT
  IC50: 0.221 ± 0.003 µM
[1]
  IC50: 8 ± 1 µM
[9]
  IC50: 7.12 ± 0.1 µM
[10]
  LogP value: 1.54 ± 0.44
[11]
  IC50: 5.79 ± 0.79 µM
[3]; 72 h incubation, MTT
  IC50: 0.138 ± 0.007 µM

## COc1ccc2cc([C@H](C)C(=O)[O][Au][PH](c3ccccc3)(c3ccccc3)c3ccccc3)ccc2c1 [complex 3]
[8]
  IC50: 10.1 ± 0.86 µM
[2]; 72 h incubation, MTT
  IC50: 0.183 ± 0.001 µM
[1]
  IC50: 8 ± 1 µM
[9]
  IC50: 6.48 ± 1.43 µM
[11]
  IC50: 7.77 ± 0.41 µM
[3]; 72 h incubation, MTT
  IC50: 0.063 ± 0.006 µM

## O=C(Cc1ccccc1Nc1c(Cl)cccc1Cl)[O][Au][PH](c1ccccc1)(c1ccccc1)c1ccccc1 [complex 4]
[12]; 10 mM, 72 h
  stability in DMSO-d6 (31P{1H} and 1H NMR): unstable in solution

## O=C([O][Au][PH](c1ccccc1)(c1ccccc1)c1ccccc1)c1ccccc1O [complex 5]
[12]; 50 μM, 24 h, 37 °C
  stability in PBS : DMSO (1 : 1) (UV-vis): but not 5, was stable
[10]
  LogP value: 0.75 ± 0.01

## Cc1c(Cl)cccc1Nc1ccccc1C(=O)[O][Au][PH](c1ccccc1)(c1ccccc1)c1ccccc1 [complex 6]
[10]
  LogP value: 1.17 ± 0.37

## Cc1cccc(Nc2ccccc2C(=O)[O][Au][PH](c2ccccc2)(c2ccccc2)c2ccccc2)c1C [complex 7]
[10]
  LogP value: 0.83 ± 0.23

## CC(C)Cc1ccc(C(C)C(=O)[O][Au][PH](c2ccccc2)(c2ccccc2)c2ccccc2)cc1 (stereo not drawn) [complex 8]
[10]
  LogP value: 1.19 ± 0.01

## COc1ccc2c(c1)c(CC(=O)O)c(C)n2C(=O)c1ccc(Cl)cc1 [indomethacin]
[13]
  COX-2 expression: decreased
[2]; [15]
  IC50: > 100 µM
[3]; [15]
  IC50: > 100 µM
